From US8158656B2, “2-indolinone derivatives as multi-target protein kinase inhibitors and histone deacetylase inhibitors” (Shenzhen Chipscreen Biosciences Ltd., priority 2008, dated 2012)

What was measured:
HeLa = assay: Tumor cell proliferation (MTS), HeLa; type: cell-based; conditions: Homo sapiens, 72 hours
Protocol: (§1) Measurement of in vivo cell proliferation:
(§2) Tumor cells were trypsinized and plated into 96-well plates at 3,000 per well and incubated in complete medium with 10% FBS for 24 hours. Compounds were added over a final concentration range of 100 μmol/L to 100 nmol/L in 0.1% DMSO and incubated for 72 hours in complete medium. The effects on proliferation were determined by addition of MTS reagent (Promega) according to the instruction, incubation for 2 hours at 37° C. in CO2 incubator, and record the absorbance at 490 nm using an ELISA plate reader.

total HDAC enzyme = assay: Total HDAC enzyme activity, HDAC Fluorimetric Assay (HeLa extract); type: biochemical, human
Protocol: Measurement of in vitro inhibition of total HDAC enzyme activity:
The in vitro inhibition of total HDAC enzyme was determined by HDAC Fluorimetric Assay/Drug Discovery Kit (BIOMOL) according to manufacture's instruction. • 1. Add Assay buffer, diluted trichostatin A or test inhibitor to appropriate wells of the microtiter plate. Following table lists examples of various assay types and the additions required for each test.
• 2. Add diluted HeLa extract or other HDAC sample to all wells except those that are to be “No Enzyme Controls” (Blank). • 3. Allow diluted Fluor de Lys™ Substrate and the samples in the microtiter plate to equilibrate to assay temperature (25° C.). • 4. Initiate HDAC reactions by adding diluted substrate (25 μl) to each well and mixing thoroughly. • 5. Allow HDAC reactions to proceed for desired length of time and then stop them by addition of Fluor de Lys™ Developer (50 μl). Incubate plate at room temperature (25° C.) for 10-15 min. • 6. Read samples in a microtiter-plate reading fluorimeter capable of excitation at a wavelength in the range 350-380 nm and detection of emitted light in the range 440-460 nm. Measurement of in vivo inhibition of HDAC subtype activity: […]

Ramos = assay: Tumor cell proliferation (MTS), Ramos; type: cell-based; conditions: Homo sapiens, 72 hours
Protocol: as §1, §2

HUVEC cells = assay: VEGF ligand-dependent cell proliferation; type: cell-based; conditions: Homo sapiens, VEGF 165 50 ng/ml, 72 hours, MTS
Protocol: VEGF dependent cell proliferation:
HUVEC cells were plated into 96-well plates at 6,000 per well and incubated with serum-free medium for 2 hours. Compounds and VEGF 165 (50 ng/ml) were added and incubated for 72 hours in serum-free medium. The effects on proliferation were determined by addition of MTS reagent (Promega) according to the instruction, incubation for 2 hours at 37° C. in CO2 incubator, and record the absorbance at 490 nm using an ELISA plate reader.

HDAC7 = target: T1, HDAC7 (Homo sapiens, UniProt Q8WUI4); assay: Nur77 reporter assay in HeLa cells; type: cell-based; conditions: relative to CS055 at 3 μM
T1 construct: endogenous in cells; host or cells: HeLa
T1 sequence (Q8WUI4 1-952): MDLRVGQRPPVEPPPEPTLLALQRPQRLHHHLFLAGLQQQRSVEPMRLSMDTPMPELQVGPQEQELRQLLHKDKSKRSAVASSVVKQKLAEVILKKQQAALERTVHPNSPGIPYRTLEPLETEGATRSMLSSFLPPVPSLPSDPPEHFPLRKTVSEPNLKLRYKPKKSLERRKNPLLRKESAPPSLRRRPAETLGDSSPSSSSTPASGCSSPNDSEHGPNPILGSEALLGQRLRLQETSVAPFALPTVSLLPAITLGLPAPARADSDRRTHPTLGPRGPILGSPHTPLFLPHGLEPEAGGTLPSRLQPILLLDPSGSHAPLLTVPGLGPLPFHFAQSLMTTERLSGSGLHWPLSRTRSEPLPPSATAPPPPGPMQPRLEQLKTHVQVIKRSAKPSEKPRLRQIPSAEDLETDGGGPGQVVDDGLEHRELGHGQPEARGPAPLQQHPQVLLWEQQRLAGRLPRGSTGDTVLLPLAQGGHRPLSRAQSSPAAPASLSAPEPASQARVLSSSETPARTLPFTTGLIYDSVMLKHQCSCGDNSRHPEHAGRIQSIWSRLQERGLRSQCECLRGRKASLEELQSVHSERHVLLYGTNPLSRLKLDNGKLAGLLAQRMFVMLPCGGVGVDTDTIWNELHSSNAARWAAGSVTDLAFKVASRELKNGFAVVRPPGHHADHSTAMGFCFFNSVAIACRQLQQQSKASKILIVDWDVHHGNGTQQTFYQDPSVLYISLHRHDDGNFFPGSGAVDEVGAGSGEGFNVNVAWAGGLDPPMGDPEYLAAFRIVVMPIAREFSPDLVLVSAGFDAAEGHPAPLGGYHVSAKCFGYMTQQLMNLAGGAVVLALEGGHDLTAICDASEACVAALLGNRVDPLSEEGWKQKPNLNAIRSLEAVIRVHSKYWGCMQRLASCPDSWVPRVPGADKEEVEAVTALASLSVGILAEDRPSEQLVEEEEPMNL
Protocol: (§3) HDAC subtype selectivity inhibition assay of tested compounds was carried out by several reporter gene assays experiments. Briefly, HeLa cells were seeded in 96-well plates the day before transfection to give a confluence of 50-80%. Cells were transfected with one of reporter gene plasmid containing a promoter sequence or response element upstream of a luciferase gene construct using FuGene6 transfection reagent according to the manufacturer's instruction (Roche). The promoters or response elements including p21-promoter, gdf11-promoter, MEF-binding element (MEF2), Nur77-promoter were fused upstream to the luciferase gene reporter construct. For normalizing the transfection efficiency, a GFP expression plasmid was cotransfected. Cells were allowed to express protein for 24 hours followed by addition of individual compounds or the vehicle (DMSO). 24 hours later the cells were harvested, and the luciferase assay and GFP assay were performed using corresponding assay kits according to the manufacturer's instructions (Promega).

HDAC3 = target: T2, HDAC3 (Homo sapiens, UniProt O15379); assay: GDF11 reporter assay in HeLa cells; type: cell-based; conditions: relative to CS055 at 3 μM
T2 construct: endogenous in cells; host or cells: HeLa
T2 sequence (O15379 whole entry): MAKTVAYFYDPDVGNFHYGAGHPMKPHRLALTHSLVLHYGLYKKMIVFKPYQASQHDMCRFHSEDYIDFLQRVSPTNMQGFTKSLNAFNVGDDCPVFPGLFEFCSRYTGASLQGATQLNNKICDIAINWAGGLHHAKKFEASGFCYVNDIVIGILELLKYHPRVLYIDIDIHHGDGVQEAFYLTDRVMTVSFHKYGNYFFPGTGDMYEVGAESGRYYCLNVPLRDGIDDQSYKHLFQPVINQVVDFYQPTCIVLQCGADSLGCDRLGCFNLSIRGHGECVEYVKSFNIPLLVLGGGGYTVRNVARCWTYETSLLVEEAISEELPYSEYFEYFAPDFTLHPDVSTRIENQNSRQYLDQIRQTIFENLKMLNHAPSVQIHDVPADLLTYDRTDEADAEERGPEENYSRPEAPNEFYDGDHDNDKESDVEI
T2 sequence (Q9Y618 whole entry partner): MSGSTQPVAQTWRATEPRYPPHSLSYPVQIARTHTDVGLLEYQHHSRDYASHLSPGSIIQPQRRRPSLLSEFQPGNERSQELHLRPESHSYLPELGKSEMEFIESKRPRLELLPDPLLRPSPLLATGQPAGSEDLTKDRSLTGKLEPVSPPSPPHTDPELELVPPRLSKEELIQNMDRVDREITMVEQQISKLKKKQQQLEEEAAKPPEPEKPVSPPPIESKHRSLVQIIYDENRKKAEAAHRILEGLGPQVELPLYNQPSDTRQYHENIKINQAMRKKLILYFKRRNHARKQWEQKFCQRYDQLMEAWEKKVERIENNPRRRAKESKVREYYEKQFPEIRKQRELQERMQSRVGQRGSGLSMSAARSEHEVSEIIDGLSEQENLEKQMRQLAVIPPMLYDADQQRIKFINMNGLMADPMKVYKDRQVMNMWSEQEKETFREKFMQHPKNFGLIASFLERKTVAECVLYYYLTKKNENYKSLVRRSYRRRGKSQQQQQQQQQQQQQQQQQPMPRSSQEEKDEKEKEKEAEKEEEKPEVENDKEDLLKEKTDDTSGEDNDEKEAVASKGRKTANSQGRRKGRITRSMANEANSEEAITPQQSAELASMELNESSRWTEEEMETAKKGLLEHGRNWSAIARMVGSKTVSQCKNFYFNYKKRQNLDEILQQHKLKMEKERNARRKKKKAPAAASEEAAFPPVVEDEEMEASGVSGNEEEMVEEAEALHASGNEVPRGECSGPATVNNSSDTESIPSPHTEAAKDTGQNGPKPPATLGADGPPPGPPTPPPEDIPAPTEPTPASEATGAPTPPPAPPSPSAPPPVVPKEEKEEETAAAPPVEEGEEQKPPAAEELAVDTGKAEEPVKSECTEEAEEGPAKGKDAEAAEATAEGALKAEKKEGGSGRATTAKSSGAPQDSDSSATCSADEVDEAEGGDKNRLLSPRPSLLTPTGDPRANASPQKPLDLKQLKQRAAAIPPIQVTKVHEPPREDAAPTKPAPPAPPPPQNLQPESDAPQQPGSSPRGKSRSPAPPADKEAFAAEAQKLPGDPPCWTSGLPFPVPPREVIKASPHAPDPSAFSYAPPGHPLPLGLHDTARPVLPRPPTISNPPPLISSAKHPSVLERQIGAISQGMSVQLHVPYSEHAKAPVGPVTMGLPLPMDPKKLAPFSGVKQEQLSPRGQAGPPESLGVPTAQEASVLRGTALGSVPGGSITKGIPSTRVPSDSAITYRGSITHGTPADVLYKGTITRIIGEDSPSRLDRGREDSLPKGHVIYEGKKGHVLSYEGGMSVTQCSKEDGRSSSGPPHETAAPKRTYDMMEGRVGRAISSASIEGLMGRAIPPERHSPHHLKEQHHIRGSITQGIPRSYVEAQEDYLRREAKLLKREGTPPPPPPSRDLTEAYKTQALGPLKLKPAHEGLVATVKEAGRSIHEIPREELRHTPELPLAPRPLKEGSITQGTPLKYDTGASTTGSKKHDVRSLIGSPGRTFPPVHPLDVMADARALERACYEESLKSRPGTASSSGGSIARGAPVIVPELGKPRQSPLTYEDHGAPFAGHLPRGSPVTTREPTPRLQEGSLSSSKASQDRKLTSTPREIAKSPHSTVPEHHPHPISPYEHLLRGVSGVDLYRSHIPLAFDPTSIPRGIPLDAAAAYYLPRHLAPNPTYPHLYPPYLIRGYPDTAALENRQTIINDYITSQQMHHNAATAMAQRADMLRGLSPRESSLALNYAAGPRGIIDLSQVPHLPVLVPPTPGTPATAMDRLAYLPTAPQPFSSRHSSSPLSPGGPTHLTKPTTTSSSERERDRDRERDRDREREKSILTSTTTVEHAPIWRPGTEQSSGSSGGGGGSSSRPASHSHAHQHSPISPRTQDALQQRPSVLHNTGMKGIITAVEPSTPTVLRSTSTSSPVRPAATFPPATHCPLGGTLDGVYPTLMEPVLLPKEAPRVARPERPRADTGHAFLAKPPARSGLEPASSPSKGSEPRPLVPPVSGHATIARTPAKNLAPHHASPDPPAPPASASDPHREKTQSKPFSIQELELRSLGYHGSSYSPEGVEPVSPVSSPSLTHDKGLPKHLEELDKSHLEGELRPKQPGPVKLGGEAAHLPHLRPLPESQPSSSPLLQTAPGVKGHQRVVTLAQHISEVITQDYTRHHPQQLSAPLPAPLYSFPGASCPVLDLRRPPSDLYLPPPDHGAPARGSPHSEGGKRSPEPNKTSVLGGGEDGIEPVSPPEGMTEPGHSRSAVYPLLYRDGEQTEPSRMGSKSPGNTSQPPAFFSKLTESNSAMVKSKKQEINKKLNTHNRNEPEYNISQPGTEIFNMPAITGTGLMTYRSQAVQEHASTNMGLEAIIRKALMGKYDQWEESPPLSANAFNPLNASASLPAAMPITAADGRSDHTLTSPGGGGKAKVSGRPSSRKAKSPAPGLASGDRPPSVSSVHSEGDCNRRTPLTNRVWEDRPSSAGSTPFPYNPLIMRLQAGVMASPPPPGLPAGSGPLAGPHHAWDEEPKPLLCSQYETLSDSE
Protocol: as §3

Row | Compound | GI50 (HeLa) | % inhibition of total HDAC enzyme activity at 30 μM (total HDAC enzyme) | GI50 (Ramos) | GI50 (HUVEC cells) | HDAC7 (Nur77 reporter assay) % Max Resp of CS055 at 3 μM (HDAC7) | HDAC3 (GDF11 reporter assay) % Max Resp of CS055 at 3 μM (HDAC3)
1 | Cc1[nH]c(/C=C2\C(=O)Nc3ccc(F)cc32)c(C)c1C(=O)NCCNc1ccc(C(=O)Nc2ccc(F)cc2N)cn1 [Example 13, (Z)-N-(2-amino-4-fluorophenyl)-6-(2-(2-((5-fluoro-2-oxoindolin-3-ylidene)-methyl)-3,5-dimethyl-1H-pyrrole-4-carboxamido)ethylamino)nicotinamide] | > 60 µM | −2.60% | > 60 µM | 7 nM | 6.4% | 1.8%
2 | Cc1[nH]c(/C=N/N=C2\C(=O)Nc3ccc(F)cc32)c(C)c1C(=O)NCCCCNc1ccc(C(=O)Nc2ccccc2N)cn1 [Example 10, N-(2-aminophenyl)-6-(4-(2-(((5-fluoro-2-oxoindolin-3-ylidene)hydrazono)-methyl)-3,5-dimethyl-1H-pyrrole-4-carboxamido)butylamino)nicotinamide] | > 60 µM | 6.10% | > 60 µM | 568 nM | 13.2% | 8.3%
